From patent US20260365671A1, “HETEROCYCLIC COMPOUND” (Takeda Pharmaceutical Company Limited, priority 2022, published 2026) come the findings set out here.

What is called IC50 is the midpoint of a concentration-inhibition curve. The low end stands for higher potency, the high end for lower potency.

One assay has as its target T1, NLRP3 inflammasome (Homo sapiens, UniProt Q96P20).
T1 construct: IL-1beta HTRF
In words: IL-1β TR-FRET assay (THP-1 cells differentiated to macrophages with IFN-γ, LPS primed, ATP activated; HTRF). In kind it is cell-based. The note with it: THP-1 macrophages, 50 ng/mL LPS priming, compound 30 min, 20 mM ATP 2 hours. The procedure:
(§1) The biological activity of Compound (I) with respect to NLRP3 was determined using the following in vitro methods.
IL-1β TR-FRET Assay (Reported as IC50)
Monocytic THP-1 cells (ATCC: TIB-202) were maintained in accordance with the provider's instructions in RPMI media (Life Technologies, Cat #A10491-01); RPMI was supplemented with 10% heat inactivated fetal bovine serum (Corning, Cat #35-010-CV). The cells were differentiated into macrophages by the addition of 25 ng/mL IFN-γ (PeproTech, Cat #AF300-02-100UG) for 24 hours at 37 °C/5% CO2. Media was exchanged with fresh media with no FBS, and the cells were treated with 50 ng/mL LPS (priming step) (LPS-EK: Invivogen, Cat #tlrl-peklps). The cells were plated at 240,000 cells per well in 384-well flat-bottom cell culture plates (FALCON, Cat #353962) and were incubated for 24 hours at 37 °C/5% CO2. Compounds were serially diluted (half log dilutions) with DMSO and were finally diluted with Media with no FBS. The compounds were added to the cells in 384-well plates (added in 1:3) and then the plates were incubated for 30 minutes at 37 °C/5% CO2. The NLRP3 inflammasome was activated with the addition of 20 mM ATP (Sigma Cat #A3377-25G) and the cells were incubated for 2 hours at 37 °C/5% CO2. At the end of the incubation period, 30 μL supernatant was transferred to another 384-well plate and mixed on a plate shaker for 1 minutes. The supernatant was mixed with HTRF Antibody (Human IL1 beta kit, Cisbio, 62HIL1BPEH) in assay plates (Greiner Bio-One, Cat #784075) and the assay plates were incubated in shading box at room temperature for 16-24 hours. HTRF signal was measured by EnVision (Perkinelmer) in accordance with the manufacturer's instructions.
(§2) The IC50 values were calculated from a plot of percentage of inhibition versus the inhibitor concentration by a logistics curve fit according to: Y=[Bottom+(Top−Bottom)]/(1+10^[(Log IC50−X)·Hill Slope], where Y is the % inhibition at the inhibitor concentration, X, “Bottom” is the lowest inhibition value, i.e., 0%, “Top” is the maximum inhibition value, i.e., 100%, and the “Hill Slope” describes the slope of the sigmoidal curve between the “Bottom” and “Top” values. The curve fitting was conducted with XLfit (ver. 5.5.0.5, ID Business Solutions Limited) or internally developed software.
(§3) Table 2 lists in vitro biological assay data (IL-1β and TNF-α) for the compounds shown in the examples. These assays are described in the section entitled Biological Activity, above.
In general terms: In TR-FRET formats the signal depends on donor and acceptor labels being close together.

In the next assay the test system is NF-κB pathway. In words: TNF-α assay (THP-1 cells differentiated to macrophages with IFN-γ, NF-κB pathway activated with LPS; ELISA). The note with it: Homo sapiens, THP-1, THP-1 macrophages, compound 30 min, 50 ng/mL LPS 3 hours. Format: cell-based, Human. The procedure: as §1
TNF-α Assay (Reported as IC50)
Monocytic THP-1 cells (ATCC: TIB-202) were maintained in accordance with the provider's instructions in RPMI media (Life Technologies, Cat #A10491-01); RPMI was supplemented with 10% heat inactivated fetal bovine serum (Hyclone Cat #SH30396.03). The cells were differentiated into macrophages by the addition of 25 ng/mL IFN-γ for 24 hours at 37 °C/5% CO2. Media was exchanged with fresh media with no FBS. The cells were plated at 40,000 cells per well in 384-well flat-bottom cell culture plates (Costar 3764) containing compounds (added in 1:1000) in a 1:3.16 serial dilution series in DMSO and were incubated for 30 minutes at 37 °C/5% CO2. The NF-κB pathway was activated with the addition of 50 ng/mL LPS and the cells were incubated for 3 hours at 37 °C/5% CO2. At the end of the incubation period, supernatant ([…]) was removed, and […] were monitored using an ELISA (Human TNF-α ELISA, R&D systems, Cat #DY210) according to the manufacturer's instructions.
as §2, §3
A general note: In an ELISA, binding on a coated surface is turned into a signal by an enzyme label.

T1 sequence (Q96P20 whole entry): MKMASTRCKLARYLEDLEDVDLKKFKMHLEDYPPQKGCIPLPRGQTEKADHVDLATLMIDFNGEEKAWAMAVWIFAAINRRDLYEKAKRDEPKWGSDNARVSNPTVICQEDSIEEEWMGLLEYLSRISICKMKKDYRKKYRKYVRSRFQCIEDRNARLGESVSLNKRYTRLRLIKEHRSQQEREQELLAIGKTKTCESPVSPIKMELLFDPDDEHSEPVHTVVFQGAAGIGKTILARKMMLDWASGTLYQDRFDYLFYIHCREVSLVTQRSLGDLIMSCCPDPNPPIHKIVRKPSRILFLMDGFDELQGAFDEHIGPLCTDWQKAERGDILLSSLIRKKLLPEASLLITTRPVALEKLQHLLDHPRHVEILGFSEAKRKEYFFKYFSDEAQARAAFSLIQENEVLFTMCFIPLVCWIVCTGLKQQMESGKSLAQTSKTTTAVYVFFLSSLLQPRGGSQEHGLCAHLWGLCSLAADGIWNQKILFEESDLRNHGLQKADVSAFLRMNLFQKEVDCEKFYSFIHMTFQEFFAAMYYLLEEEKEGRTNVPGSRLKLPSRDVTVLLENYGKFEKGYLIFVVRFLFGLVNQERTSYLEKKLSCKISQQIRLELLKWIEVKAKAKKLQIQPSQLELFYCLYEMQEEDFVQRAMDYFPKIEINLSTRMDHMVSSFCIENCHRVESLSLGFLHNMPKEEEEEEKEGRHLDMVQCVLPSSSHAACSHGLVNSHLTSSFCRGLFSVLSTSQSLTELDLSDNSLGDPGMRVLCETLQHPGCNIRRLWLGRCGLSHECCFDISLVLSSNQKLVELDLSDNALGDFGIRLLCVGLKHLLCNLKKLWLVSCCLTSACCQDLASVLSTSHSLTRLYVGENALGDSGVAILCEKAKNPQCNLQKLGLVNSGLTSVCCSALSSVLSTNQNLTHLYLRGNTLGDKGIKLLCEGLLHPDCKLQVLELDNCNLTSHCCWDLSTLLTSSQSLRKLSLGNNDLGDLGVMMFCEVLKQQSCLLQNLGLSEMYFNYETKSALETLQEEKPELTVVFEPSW

Regarding `Cc1cc(F)cc(O)c1-n1cc2sc(N[C@@H]3CCCC[C@H]3O)nc2n1` [Example 6, 5-fluoro-2-(5-{[(1R,2R)-2-hydroxycyclohexyl]amino}-2H-pyrazolo[3,4-d][1,3]thiazol-2-yl)-3-methylphenol], the IC50 at NLRP3 inflammasome is 980 nM; in the assay on NF-κB pathway, greater than 10000 nM.

On to `CCN1C[C@H](F)C[C@@H](Nc2nc3nn(-c4c(C)cc(C)cc4O)cc3s2)C1` [Example 7, 2-(5-{[(3R,5R)-1-ethyl-5-fluoropiperidin-3-yl]amino}-2H-pyrazolo[3,4-d][1,3]thiazol-2-yl)-3,5-dimethylphenol], for which the IC50 at NLRP3 inflammasome was 13 nM; in the assay on NF-κB pathway, greater than 30000 nM.

For the compound `CN1C[C@H](F)C[C@@H](Nc2nc3nn(-c4c(O)cccc4Cl)cc3s2)C1` [Example 8, 3-chloro-2-(5-{[(3R,5R)-5-fluoro-1-methylpiperidin-3-yl]amino}-2H-pyrazolo[3,4-d][1,3]thiazol-2-yl)phenol], the figures for the concentration for half-maximal inhibition (IC50) on NLRP3 inflammasome and with NF-κB pathway were 290 nM and greater than 30000 nM, respectively.

In the case of `Cc1cc(Cl)cc(O)c1-n1cc2sc(N[C@@H]3C[C@@H](F)CN(C)C3)nc2n1` [Example 9, 5-chloro-2-(5-{[(3R,5R)-5-fluoro-1-methylpiperidin-3-yl]amino}-2H-pyrazolo[3,4-d][1,3]thiazol-2-yl)-3-methylphenol], the figures for the IC50 on NLRP3 inflammasome and in the assay with NF-κB pathway were 14 nM and greater than 30000 nM, respectively.

For `Cc1cc(O)c(-n2cc3sc(N[C@@H]4C[C@@H](F)CN(C)C4)nc3n2)c(Cl)c1` [Example 11, 3-chloro-2-(5-{[(3R,5R)-5-fluoro-1-methylpiperidin-3-yl]amino}-2H-pyrazolo[3,4-d][1,3]thiazol-2-yl)-5-methylphenol], the IC50 on NLRP3 inflammasome is 37 nM; in the assay with NF-κB pathway, greater than 30000 nM.

Take `Cc1cc(F)cc(O)c1-n1cc2sc(N[C@@H]3CCCN(C4CC4)C3)nc2n1` [Example 12, 2-(5-{[(3R)-1-cyclopropylpiperidin-3-yl]amino}-2H-pyrazolo[3,4-d][1,3]thiazol-2-yl)-5-fluoro-3-methylphenol]: the figures for the IC50 against NLRP3 inflammasome and in the assay with NF-κB pathway were 3.6 nM and greater than 10000 nM, respectively.

Take `Cc1cc(C(F)F)cc(O)c1-n1cc2sc(N[C@@H]3C[C@@H](F)CN(C)C3)nc2n1` [Example 13, 5-(difluoromethyl)-2-(5-{[(3R,5R)-5-fluoro-1-methylpiperidin-3-yl]amino}-2H-pyrazolo[3,4-d][1,3]thiazol-2-yl)-3-methylphenol]: the IC50 at NLRP3 inflammasome was 25 nM; in the assay with NF-κB pathway, greater than 30000 nM.

Turning to `CCN1C[C@H](F)C[C@@H](Nc2nc3nn(-c4c(C)cc(C(F)F)cc4O)cc3s2)C1` [Example 16, 5-(difluoromethyl)-2-(5-{[(3R,5R)-1-ethyl-5-fluoropiperidin-3-yl]amino}-2H-pyrazolo[3,4-d][1,3]thiazol-2-yl)-3-methylphenol], the IC50 is 11 nM against NLRP3 inflammasome and greater than 30000 nM in the assay on NF-κB pathway.

With `CN1C[C@H](F)C[C@@H](Nc2nc3nn(-c4c(O)cc(F)cc4Cl)cc3s2)C1` [Example 17, 3-chloro-5-fluoro-2-(5-{[(3R,5R)-5-fluoro-1-methylpiperidin-3-yl]amino}-2H-pyrazolo[3,4-d][1,3]thi-azol-2-yl)phenol], the figures for the IC50 on NLRP3 inflammasome and with NF-κB pathway were 110 nM and greater than 30000 nM, respectively.

Regarding `Oc1cc(F)cc(Cl)c1-n1cc2sc(N[C@@H]3CCCN(C4CC4)C3)nc2n1` [Example 18, 3-chloro-2-(5-{[(3R)-1-cyclopropyl-piperidin-3-yl]amino}-2H-pyrazolo[3,4-d][1,3]thiazol-2-yl)-5-fluorophenol], the 50% inhibitory concentration (IC50) at NLRP3 inflammasome was 11 nM; in the assay with NF-κB pathway, greater than 30000 nM.

For the compound `CO[C@H]1C[C@@H](Nc2nc3nn(-c4c(C)cc(C)cc4O)cc3s2)CN(C)C1` [Example 19, 2-(5-{[(3R,5S)-5-methoxy-1-methylpiperidin-3-yl]amino}-2H-pyrazolo[3,4-d][1,3]thiazol-2-yl)-3,5-dimethylphenol], the 50% inhibitory concentration (IC50) at NLRP3 inflammasome is 5400 nM; in the assay with NF-κB pathway, greater than 30000 nM.

For `CCc1cc(C)cc(O)c1-n1cc2sc(N[C@@H]3C[C@@H](F)CN(C)C3)nc2n1` [Example 20, 3-ethyl-2-(5-{[(3R,5R)-5-fluoro-1-methylpiperidin-3-yl]amino}-2H-pyrazolo[3,4-d][1,3]thiazol-2-yl)-5-methylphenol], the concentration for half-maximal inhibition (IC50) against NLRP3 inflammasome was 9.2 nM; in the assay on NF-κB pathway, greater than 30000 nM.

With `CCN1C[C@H](F)C[C@@H](Nc2nc3nn(-c4c(O)cc(F)cc4C(F)F)cc3s2)C1` [Example 24, 3-(difluoromethyl)-2-(5-{[(3R,5R)-1-ethyl-5-fluoropiperidin-3-yl]amino}-2H-pyrazolo[3,4-d][1,3]thiazol-2-yl)-5-fluorophenol], the values for the IC50 against NLRP3 inflammasome and with NF-κB pathway were 16 nM and greater than 10000 nM, respectively.

`Cc1cc(C)c(-n2cc3sc(N[C@H]4CC[C@H](O)CC4)nc3n2)c(O)c1` [Example 25, 2-{5-[(trans-4-hydroxycyclo-hexyl)amino]-2H-pyrazolo[3,4-d][1,3]thiazol-2-yl}-3,5-dimethylphenol]: the IC50 was 350 nM against NLRP3 inflammasome and greater than 10000 nM in the assay on NF-κB pathway.

With `Cc1cc(C)c(-n2cc3sc(N[C@H]4CC[C@@H](O)CC4)nc3n2)c(O)c1` [Example 26, 2-{5-[(cis-4-hydroxycyclohexyl)amino]-2H-pyrazolo[3,4-d][1,3]thiazol-2-yl}-3,5-dimethylphenol], the 50% inhibitory concentration (IC50) is 830 nM at NLRP3 inflammasome and greater than 10000 nM in the assay on NF-κB pathway.

As to `Cc1cc(C)c(-n2cc3sc(N[C@@H]4CCCN(C(=O)OCC(Cl)(Cl)Cl)C4)nc3n2)c(O)c1` [Example 27, 2,2,2-trichloroethyl (3R)-3-{[2-(2-hydroxy-4,6-dimethylphenyl)-2H-pyrazolo[3,4-d][1,3]thiazol-5-yl]amino}piperidine-1-carboxylate], the figures for the IC50 at NLRP3 inflammasome and in the assay on NF-κB pathway were 620 nM and 6300 nM, respectively.

As for `Cc1cc(C)c(-n2cc3sc(NC4CCCC4O)nc3n2)c(O)c1` (stereo not drawn) [Example 28, 2-{5-[(2-hydroxycyclopentyl)amino]-2H-pyrazolo[3,4-d][1,3]thiazol-2-yl}-3,5-dimethylphenol], the IC50 is 480 nM on NLRP3 inflammasome and greater than 10000 nM with NF-κB pathway.

On to `Cc1cc(C)c(-n2cc3sc(NC4CCCC(O)C4)nc3n2)c(O)c1` (stereo not drawn) [Example 29, 2-{5-[(3-hydroxycyclohexyl)amino]-2H-pyrazolo[3,4-d][1,3]thiazol-2-yl}-3,5-dimethylphenol], for which the IC50 was 540 nM at NLRP3 inflammasome and greater than 10000 nM with NF-κB pathway.

For `Cc1cc(C)c(-n2cc3sc(NC4CC5(CC(O)C5)C4)nc3n2)c(O)c1` (stereo not drawn) [Example 30, 6-{[2-(2-hydroxy-4,6-dimethylphenyl)-2H-pyrazolo[3,4-d][1,3]thiazol-5-yl]amino}spiro[3.3]heptan-2-ol], the IC50 is 830 nM against NLRP3 inflammasome and greater than 10000 nM in the assay with NF-κB pathway.

As to `Cc1cc(C)c(-n2cc3sc(N[C@H]4C[C@@](C)(O)C4)nc3n2)c(O)c1` [Example 31, 2-{5-[(cis-3-hydroxy-3-methylcyclobutyl)amino]-2H-pyrazolo[3,4-d][1,3]thiazol-2-yl}-3,5-dimethylphenyl], the values for the IC50 against NLRP3 inflammasome and in the assay on NF-κB pathway were 650 nM and greater than 30000 nM, respectively.

For the compound `Cc1cc(C)c(-n2cc3sc(N[C@H]4C[C@](C)(O)C4)nc3n2)c(O)c1` [Example 32, 2-{5-[(trans-3-hydroxy-3-methylcyclobutyl)amino]-2H-pyrazolo[3,4-d][1,3]thiazol-2-yl}-3,5-dimethylphenol], the 50% inhibitory concentration (IC50) is 680 nM on NLRP3 inflammasome and greater than 10000 nM in the assay on NF-κB pathway.
